Data as given in ChEMBL document CHEMBL4229348, “Structure-activity relationship studies of ultra-short peptides with potent activities against fluconazole-resistant Candida albicans” (Eur J Med Chem, 2018).
Converted amounts (≈) assume the structure as drawn. The source made the active and inactive calls. No cut-off for these calls is given here. Peptide text beside a SMILES is read from it.

Tests used:
Candida albicans [1] = assay: Fungicidal activity against fluconazole-resistant Candida albicans ATCC 64550 at 4 times MIC incubated for overnight flowed by replating and measured after 24 hrs; format: functional, organism-based
Candida albicans [2] = assay: Antifungal activity against fluconazole-resistant Candida albicans ATCC 64124 after overnight incubation by CLSI broth microdilution method; format: functional
Candida albicans [3] = assay: Antifungal activity against fluconazole-resistant Candida albicans TTSH-CALB02 after overnight incubation by CLSI broth microdilution method; format: functional
Candida albicans [4] = assay: Antifungal activity against fluconazole-resistant Candida albicans NUH-K6004 after overnight incubation by CLSI broth microdilution method; format: functional
Saccharomyces cerevisiae [5] = assay: Induction of membrane permeabilization in Saccharomyces cerevisiae BY4743 assessed as propidium iodide uptake at 46 uM preincubated for 2.5 hrs followed by propidium iodide addition and measured after 20 mins by bright-field and fluorescence microscopic analysis (reference value: 98%); format: functional
NHDF = assay: Cytotoxicity against NHDF assessed as reduction in cell viability up to 200 uM after 5 days by CellTiter-Glo assay; format: cell-based; conditions: human, 120 h
Saccharomyces cerevisiae [6] = assay: Induction of membrane permeabilization in Saccharomyces cerevisiae BY4743 assessed as propidium iodide uptake at 23 uM preincubated for 2.5 hrs followed by propidium iodide addition and measured after 20 mins by bright-field and fluorescence microscopic analysis (reference value: 98%); format: functional
Candida albicans [7] = assay: Antifungal activity against fluconazole-resistant Candida albicans ATCC 96901 after overnight incubation by CLSI broth microdilution method; format: functional
Saccharomyces cerevisiae [8] = assay: Growth inhibition of Saccharomyces cerevisiae BY4743 incubated for 16 to 24 hrs; format: functional
Candida albicans [9] = assay: Antifungal activity against fluconazole-resistant Candida albicans ATCC 200955 after overnight incubation by CLSI broth microdilution method; format: functional
Candida albicans [10] = assay: Antifungal activity against fluconazole-resistant Candida albicans ATCC MYA-573 after overnight incubation by CLSI broth microdilution method; format: functional
Candida albicans [11] = assay: Antifungal activity against fluconazole-resistant Candida albicans TTSH-CALB01 after overnight incubation by CLSI broth microdilution method; format: functional
[12] = Retention time of the compound at 0.4 mM by HPLC analysis; format: physicochemical; conditions: 400 µM
Candida albicans [13] = assay: Antifungal activity against fluconazole-resistant Candida albicans ATCC 64550 after overnight incubation by CLSI broth microdilution method; format: functional
Candida albicans [14] = assay: Antifungal activity against fluconazole-susceptible Candida albicans; format: functional
Candida albicans [15] = assay: Potency index, ratio of omiganan MIC to compound MIC for antifungal activity against fluconazole-resistant Candida albicans ATCC 64550; format: functional

Compound | Activity (Candida albicans [1]) | MIC (Candida albicans [2]) [µM] | MIC (Candida albicans [3]) [µM] | MIC (Candida albicans [4]) [µM] | Activity (Saccharomyces cerevisiae [5]) [%] | Activity (NHDF) | Activity (Saccharomyces cerevisiae [6]) [%] | MIC (Candida albicans [7]) [µM] | GI50 (Saccharomyces cerevisiae [8]) [µM] | TGI (Saccharomyces cerevisiae [8]; read-out: GI100) [µM] | MIC (Candida albicans [9]) [µM] | MIC (Candida albicans [10]) [µM] | MIC (Candida albicans [11]) [µM] | Retention_time [12] [min] | MIC (Candida albicans [13]) [µM] | MIC (Candida albicans [14]) [µM] | Ratio (Candida albicans [15])
CCCC[C@H](NC(=O)[C@H](CCCCN)NC(=O)[C@H](CCCC)NC(=O)[C@H](CCCCN)NC(=O)[C@H](CCCC)NC(=O)[C@H](CCCCN)NC(=O)[C@@H](N)CCCC)C(=O)N[C@@H](CCCCN)C(N)=O (HELM PEPTIDE1{[Nle].K.[Nle].K.[Nle].K.[Nle].K.[am]}$$$$V2.0) | Active | 3.13 (≈ 3.07 µg/mL) | 1.56 (≈ 1.53 µg/mL) | 1.56 (≈ 1.53 µg/mL) | 100 | Non-Toxic | 75 | 1.56 (≈ 1.53 µg/mL) | 5.75 | 5.75 | 1.56 (≈ 1.53 µg/mL) | 3.13 (≈ 3.07 µg/mL) | 1.56 (≈ 1.53 µg/mL) | 14 | 1.56 (≈ 1.53 µg/mL) | – | –
H-IKIKIKIK-NH2 | – | – | – | – | – | – | – | – | – | – | – | – | – | 13.4 | 3.13 | 1.56 | 16
